Results taken from patent US11485742B2, “2-azaspiro[3.4]octane derivatives as M4 agonists” (NOVARTIS AG, priority 2019, dated 2022).

Legend:
[1] = target: T1, human cloned CHRM5 receptor (Homo sapiens, UniProt P08912); test: CHRM5 Ca++ Flux Assay (M5_CHO cells, agonist mode); format: cell-based
T1 construct: expressed in transfected cells; host or cells: CHO (M5_CHO)
T1 sequence (P08912 1-532): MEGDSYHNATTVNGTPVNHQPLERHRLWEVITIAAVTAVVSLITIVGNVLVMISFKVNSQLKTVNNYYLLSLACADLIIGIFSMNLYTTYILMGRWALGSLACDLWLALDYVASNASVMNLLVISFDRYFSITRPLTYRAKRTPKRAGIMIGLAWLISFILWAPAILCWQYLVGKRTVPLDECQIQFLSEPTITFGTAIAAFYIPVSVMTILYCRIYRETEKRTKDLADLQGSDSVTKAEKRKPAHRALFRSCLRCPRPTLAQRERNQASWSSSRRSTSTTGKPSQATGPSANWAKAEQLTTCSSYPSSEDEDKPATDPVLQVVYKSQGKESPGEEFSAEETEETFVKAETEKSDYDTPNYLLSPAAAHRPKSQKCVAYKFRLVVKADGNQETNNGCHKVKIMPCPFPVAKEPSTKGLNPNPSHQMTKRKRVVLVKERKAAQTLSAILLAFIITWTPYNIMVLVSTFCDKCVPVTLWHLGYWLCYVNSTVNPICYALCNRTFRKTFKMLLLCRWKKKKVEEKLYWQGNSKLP
Method in brief: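 Agonist-mode calcium mobilisation: compounds, 11 concentrations in triplicate, applied to stable M3_CHO or M5_CHO cells loaded with Ca++ dye, fluorescence followed 3 min. Efficacy expressed against carbachol EC100; EC curves by four-parameter nonlinear regression, geometric mean across independent runs.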

[2] = target: T2, human cloned CHRM2 receptor (Homo sapiens, UniProt P08172); test: CHRM2 Ca++ Flux Assay (M2_CHO cells, agonist mode); format: cell-based; conditions: M2 CHO cells
T2 construct: expressed in transfected cells; host or cells: CHO-K1 (M2_CHO)
T2 sequence (P08172 1-466): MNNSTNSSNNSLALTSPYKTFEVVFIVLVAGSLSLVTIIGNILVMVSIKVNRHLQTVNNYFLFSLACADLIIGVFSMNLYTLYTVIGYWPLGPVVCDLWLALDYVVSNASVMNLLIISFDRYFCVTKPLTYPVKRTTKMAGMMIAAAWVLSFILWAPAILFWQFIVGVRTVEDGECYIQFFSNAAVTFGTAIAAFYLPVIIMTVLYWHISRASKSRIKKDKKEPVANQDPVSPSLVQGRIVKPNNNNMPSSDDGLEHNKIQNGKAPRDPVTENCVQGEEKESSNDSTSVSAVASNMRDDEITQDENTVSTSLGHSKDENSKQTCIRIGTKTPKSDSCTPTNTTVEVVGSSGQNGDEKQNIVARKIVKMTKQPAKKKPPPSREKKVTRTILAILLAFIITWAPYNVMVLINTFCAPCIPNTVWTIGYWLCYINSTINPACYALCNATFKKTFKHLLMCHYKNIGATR
Method in brief: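 Agonist activity was expressed as percent of the carbachol EC100 response, fitted by four-parameter regression on triplicate wells, with geometric means across repeat runs. Calcium traces over 3 minutes came from dye-loaded M2_CHO cells (12K/well) pre-incubated 60 min in Ca/Mg-free HBSS with 20 mM HEPES, 2.5 mM probenecid and 20 μM ATP.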

## Cc1nnc(-c2ccccc2C2CCN([C@@H]3COC4(C3)CN(c3nnco3)C4)CC2)o1 [Example 1Y, (S)-7-(4-(2-(5-methyl-1,3,4-oxadiazol-2-yl)phenyl)piperidin-1-yl)-2-(1,3,4-oxadiazol-2-yl)-5-oxa-2-azaspiro[3.4]octane]
[1]; Percent Activity (PA) measured to EC100 of Carbachol, read-out: M5 FDSS PA %
  Emax: 0%
[1]; agonist mode, geometric mean if tested more than once, read-out: M5 FDSS EC50
  EC50: > 25000 nM
[2]; agonist mode, geometric mean if tested more than once, read-out: M2 FDSS EC50
  EC50: 874 nM
[2]; Percent Activity (PA) measured to EC100 of Carbachol, read-out: M2 FDSS PA %
  Emax: 35%
